Results: patent publication US20140242012A1, “METHODS FOR TREATING UV-DAMAGED SKIN AND SCC TUMORS AND FOR REMOVING TATTOOS WITH TOPICAL INGENOL MEBUTATE” (LEO Laboratories Limited, priority 2011, published 2014)

Columns and labels:
UVB-induced skin lesions = assay: Field treatment of ~10 cm2 UVB-damaged skin: development of UVB-induced lesions; format: in vivo, SKH1/hr mice
Excerpt: Outbred SKH1/hr mice were irradiated 3 times per week for 10-11 weeks under 6×TL-12/40 W fluorescent tubes (Phillips, Amsterdam, The Netherlands) mounted in parallel. The lamps emit 54% UVB (280-315 nm) and 46% UVA (315-400 nm) (Rebel et al., 2001). During the irradiation mice were segregated into individual boxes (11.5×20 cm) with a piece of 0.125 mm cellulose acetate placed over the box to prevent any UVC reaching the mice. The mice were 26 cm below the UV lamps. Under these conditions the mice received 1.25 times the minimal erythemal dose (MED) of UVB at each exposure, with the total UVB dose being 37.5 MED. One MED was defined as the minimal UVB dose, which caused erythema-oedema evident by visual examination. […] Such cessation was usually only necessary after the initial 2-3 doses of UVB, as mice become resistant to UVB-induced erythema with repeated exposures.
One to three days after discontinuation of UVB irradiation, a ˜10 cm2 rectangular area located centrally on the dorsa and previously demarcated by a tattoo were treated topically, daily for 2 days with 100 μl of 0.05% ingenol mebutate gel or 100 μl of placebo gel. An untreated group served as an additional control. The mice were monitored weekly for the development of lesions both within and outside the treatment areas. […] The number and size of lesions was monitored over time. All visible lesions were counted. […]

UVB-damaged skin = assay: Skin appearance and histology after treatment of UVB-damaged skin; format: in vivo, SKH1/hr mice
Description: For histological studies samples were fixed in 10% formalin and processed for paraffin embedding at the indicated times after ingenol mebutate treatment. Paraffin sections were stained with haematoxylin and eosin (H&E), or toluidine blue using standard protocols.
(§1) Three days after the last dose of UVB irradiation, an about 4 cm^2 dorsal area was topically treated daily for 2 days with 40 μl of 0.05% PEP005 gel or placebo gel. The treatment area was demarcated by a tattoo. Mice were culled 6 h (6 h) and 24 h (Day 1) after the first dose of 0.05% PEP005 gel and 24 h after the second dose of 0.05% PEP005 gel or placebo gel (Day 2). The samples were fixed in 10% formalin and processed by QIMR histology for paraffin embedding. Paraffin sections were stained with haematoxylin and eosin (H&E), Leder stain or toludine blue by QIMR Histotechnology, in accordance with standard protocols.
To identify the histological changes after 0.05% PEP005 gel treatment, skin was examined at different times after treatment; 6 h after the first dose was applied (6 h), 24 h after the first dose was applied (Day 1), and 24 h after the second dose was applied (Day 2). Placebo treated mice were treated with equivalent volumes of placebo gel and the skin examined 24 h after the second dose.
as §1, with “a ˜4 cm2” for “an about 4 cm^2”
Three days after the last dose of UVB irradiation, a ˜4 cm^2 dorsal area is topically treated daily for 2 days with 40 μl of 0.05% PEP005 gel or placebo gel. The treatment area is demarcated by a tattoo. […]

C/C=C(/C)C(=O)O[C@H]1C(C)=C[C@]23C(=O)[C@@H](C=C(CO)[C@@H](O)[C@]12O)[C@H]1[C@@H](C[C@H]3C)C1(C)C [ingenol mebutate]
growth of individual lesions vs control and placebo (UVB-induced skin lesions; lesions within the treatment areas): no significant difference | number of lesions outside the treatment area (UVB-induced skin lesions; ~10 cm2 area): not significantly affected | haemorrhage in treated skin (UVB-damaged skin; 24-48 h after treatment initiation): widespread haemorrhage | mast cells (toluidine blue staining) (UVB-damaged skin; 24 h): few toluidine blue staining cells could be seen | reduction of mean skin area within the tattooed treatment area (UVB-damaged skin; after healing up to 20-21 weeks, ~4 or ~10 cm2 area): about 3 fold
